Assay results from patent US20250280696A1, “FORMULATIONS AND USES THEREOF IN OPTOELECTRONIC FIELD” (Zhejiang Brilliant Optoelectronic Technology Co.,Ltd., priority 2022, published 2025).

Assays:
Assay type in all cases: physicochemical
[1] = Solubility of compounds in toluene; conditions: per 100 g toluene
Protocol: The solubility of the compounds in the toluene were determined as follows: • 1. 1000 mg toluene was placed in the transparent glass sample bottle. • 2. A certain mass of the compound was added into the toluene, and oscillated until completely dissolved. • 3. After the compound was completely dissolved, a certain mass of the compound was further added into the toluene, and oscillated. • 4. The above steps were repeated until the compound wasn't dissolved any more. • 5. The total mass of the compound added was recorded and the solubility was obtained by calculation.

[2] = Absorption spectrum, emission spectrum and extinction coefficient in toluene solution; conditions: for Molar extinction coefficient of the toluene solution: at maximum absorption peak
Protocol: The extinction coefficients of the compounds and their absorption and emission spectrums in the solution were determined as follows: • 1. The compound with a certain amount of substance concentration in the toluene was prepared in a volumetric flask. • 2. The absorption spectrum of the solution was measured by using an ultraviolet-visible spectrophotometer (Puxi T9s) to obtain the absorption peak wavelength. • 3. The absorbance of the maximum absorption peak divided by the amount of substance concentration is the molar extinction coefficient of the compound. • 4. The emission spectrum of the solution was measured by using a fluorescent spectroscope (Hitachi, F-4700 FL Spectrophotometer) to obtain the emission peak wavelength.
(§1) The extinction coefficients of the compounds and their absorption and emission peaks in the solution and film are shown in Table 3.

[3] = Absorption and emission spectrum in spin-coated film; conditions: for Red shift of the spectrum in the film relative to the solution: film vs toluene solution; for Absorption peak of the film / Emission peak of the film: spin-coated film on glass
Protocol: The Absorption and emission spectrums of the compounds in the film were determined as follows: • 1. The compound with a certain concentration in the toluene was prepared. • 2. The prepared toluene solution was dropped onto a clean glass substrate. • 3. Spin-coating, and then heating at the 80° C. for 1 min. • 4. The absorption spectrum of the film was measured by using an ultraviolet-visible spectrophotometer (Puxi T9s) to obtain the absorption peak wavelength. • 5. The emission spectrum of the film was measured by using a fluorescent spectroscope (Hitachi, F-4700 FL Spectrophotometer) to obtain the emission peak wavelength.
as §1

[4] = UV stability of compounds in toluene (absorbance decay, t80); conditions: for Times t80: UV LEDs 365 nm & 255 nm, 12 cm, time until absorbance decayed to 80% of initial value; for UV stability compared with the unfluorinated compound 20: UV irradiation
Protocol: The UV stability of the compounds were tested as follows:
The compound was dissolved in the toluene with a concentration of 1×10^5 mol/L. 3 mL solution was added to the cuvette with a lid and the lid was screwed on tightly, then the cuvette was placed in the ultraviolet-visible spectrophotometer to test the absorption spectrum, the absorbance of the maximum absorption peak was recorded as the initial value. The cuvette was placed at a distance of 12 cm from the UV LEDs (365 nm & 255 nm), irradiated for a period and tested its absorption spectrum, then continued to be irradiated after the test, and repeated until the absorbance decayed to 80% of its initial value, the time was recorded as t80.

Structure (SMILES): Cc1cccc(C)c1N(c1ccc(C(C)(C)C)cc1)c1cc(N(c2ccc(C(C)(C)C)cc2)c2c(C)cccc2C)c2ccc3c(N(c4ccc(C(C)(C)C)cc4)c4c(C)cccc4C)cc(N(c4ccc(C(C)(C)C)cc4)c4c(C)cccc4C)c4ccc1c2c43 [Compound 4]
- Solubilities(/100 g toluene) [1]: 4.2 g
- Molar extinction coefficient of the toluene solution [2]: 30000 L/mol
- Red shift of the spectrum in the film relative to the solution [3]: very small red shift
- Times t80 [4]: 195 min

Structure (SMILES): Cc1cccc(C)c1N(c1cc(C(C)(C)C)cc(C(C)(C)C)c1)c1cc(N(c2cc(C(C)(C)C)cc(C(C)(C)C)c2)c2c(C)cccc2C)c2ccc3c(N(c4cc(C(C)(C)C)cc(C(C)(C)C)c4)c4c(C)cccc4C)cc(N(c4cc(C(C)(C)C)cc(C(C)(C)C)c4)c4c(C)cccc4C)c4ccc1c2c43 [Compound 7]
- Solubilities(/100 g toluene) [1]: 4.6 g
- Molar extinction coefficient of the toluene solution [2]: 56000 L/mol
- Red shift of the spectrum in the film relative to the solution [3]: very small red shift
- Times t80 [4]: 280 min

Structure (SMILES): CC(C)c1cccc(C(C)C)c1N(c1ccc(C(C)(C)C)cc1)c1cc(N(c2ccc(C(C)(C)C)cc2)c2c(C(C)C)cccc2C(C)C)c2ccc3c(N(c4ccc(C(C)(C)C)cc4)c4c(C(C)C)cccc4C(C)C)cc(N(c4ccc(C(C)(C)C)cc4)c4c(C(C)C)cccc4C(C)C)c4ccc1c2c43 [Compound 8]
- Solubilities(/100 g toluene) [1]: >20 g

Structure (SMILES): CC(C)c1cccc(C(C)C)c1N(c1cc(C(C)(C)C)cc(C(C)(C)C)c1)c1cc(N(c2cc(C(C)(C)C)cc(C(C)(C)C)c2)c2c(C(C)C)cccc2C(C)C)c2ccc3c(N(c4cc(C(C)(C)C)cc(C(C)(C)C)c4)c4c(C(C)C)cccc4C(C)C)cc(N(c4cc(C(C)(C)C)cc(C(C)(C)C)c4)c4c(C(C)C)cccc4C(C)C)c4ccc1c2c43 [Compound 9]
- Solubilities(/100 g toluene) [1]: >20 g

Structure (SMILES): CCc1cccc(CC)c1N(c1ccc(C(C)(C)C)cc1)c1cc(N(c2ccc(C(C)(C)C)cc2)c2c(CC)cccc2CC)c2ccc3c(N(c4ccc(C(C)(C)C)cc4)c4c(CC)cccc4CC)cc(N(c4ccc(C(C)(C)C)cc4)c4c(CC)cccc4CC)c4ccc1c2c43 [Compound 11]
- Solubilities(/100 g toluene) [1]: 25.9 g
- Molar extinction coefficient of the toluene solution [2]: 53000 L/mol
- Red shift of the spectrum in the film relative to the solution [3]: very small red shift
- Times t80 [4]: 257 min

Structure (SMILES): Cc1ccccc1N(c1ccc(C(C)(C)C)cc1C)c1cc(N(c2ccccc2C)c2ccc(C(C)(C)C)cc2C)c2ccc3c(N(c4ccccc4C)c4ccc(C(C)(C)C)cc4C)cc(N(c4ccccc4C)c4ccc(C(C)(C)C)cc4C)c4ccc1c2c43 [Compound 12]
- Solubilities(/100 g toluene) [1]: >3 g

Structure (SMILES): Cc1cc2ccccc2cc1N(c1ccc(C(C)(C)C)cc1)c1cc(N(c2ccc(C(C)(C)C)cc2)c2cc3ccccc3cc2C)c2ccc3c(N(c4ccc(C(C)(C)C)cc4)c4cc5ccccc5cc4C)cc(N(c4ccc(C(C)(C)C)cc4)c4cc5ccccc5cc4C)c4ccc1c2c43 [Compound 13]
- Solubilities(/100 g toluene) [1]: >2.5 g

Structure (SMILES): Cc1cc2ccccc2c(C)c1N(c1ccc(C(C)(C)C)cc1)c1cc(N(c2ccc(C(C)(C)C)cc2)c2c(C)cc3ccccc3c2C)c2ccc3c(N(c4ccc(C(C)(C)C)cc4)c4c(C)cc5ccccc5c4C)cc(N(c4ccc(C(C)(C)C)cc4)c4c(C)cc5ccccc5c4C)c4ccc1c2c43 [Compound 14]
- Solubilities(/100 g toluene) [1]: >2 g

Structure (SMILES): Cc1cccc(C)c1N(c1ccc(C(F)(F)F)cc1)c1cc(N(c2ccc(C(F)(F)F)cc2)c2c(C)cccc2C)c2ccc3c(N(c4ccc(C(F)(F)F)cc4)c4c(C)cccc4C)cc(N(c4ccc(C(F)(F)F)cc4)c4c(C)cccc4C)c4ccc1c2c43 [Compound 15]
- Solubilities(/100 g toluene) [1]: >4 g

Structure (SMILES): Fc1ccc(N(c2ccccc2)c2cc(N(c3ccccc3)c3ccc(F)cc3)c3ccc4c(N(c5ccccc5)c5ccc(F)cc5)cc(N(c5ccccc5)c5ccc(F)cc5)c5ccc2c3c54)cc1 [Compound 16]
- Solubilities(/100 g toluene) [1]: >1.5 g
- Absorption peak of the toluene solution [2]: 466 nm
- Emission peak of the toluene solution [2]: 493 nm
- Molar extinction coefficient of the toluene solution [2]: 37000 L/mol
- Red shift of the spectrum in the film relative to the solution [3]: large red shift
- Absorption peak of the film [3]: 469 nm
- Emission peak of the film [3]: 551 nm
- Times t80 [4]: 227 min
- UV stability compared with the unfluorinated compound 20 [4]: greatly improved

Structure (SMILES): Fc1cccc(F)c1N(c1ccccc1)c1cc(N(c2ccccc2)c2c(F)cccc2F)c2ccc3c(N(c4ccccc4)c4c(F)cccc4F)cc(N(c4ccccc4)c4c(F)cccc4F)c4ccc1c2c43 [Compound 17]
- Solubilities(/100 g toluene) [1]: >1 g
- Absorption peak of the toluene solution [2]: 439 nm
- Emission peak of the toluene solution [2]: 462 nm
- Molar extinction coefficient of the toluene solution [2]: 18000 L/mol
- Red shift of the spectrum in the film relative to the solution [3]: large red shift
- Absorption peak of the film [3]: 445 nm
- Emission peak of the film [3]: 496 nm
- UV stability compared with the unfluorinated compound 20 [4]: greatly improved

Structure (SMILES): Cc1cccc(C)c1N(c1nc(-c2ccccc2)nc(-c2ccccc2)n1)c1cc(C(C)C)c2ccc3c(N(c4nc(-c5ccccc5)nc(-c5ccccc5)n4)c4c(C)cccc4C)cc(C(C)C)c4ccc1c2c43 [Compound 18]
- Solubilities(/100 g toluene) [1]: >1 g

Structure (SMILES): Cc1cccc(C)c1N(c1ncc2ccccc2n1)c1cc(C(C)C)c2ccc3c(N(c4ncc5ccccc5n4)c4c(C)cccc4C)cc(C(C)C)c4ccc1c2c43 [Compound 19]
- Solubilities(/100 g toluene) [1]: >1 g

Structure (SMILES): c1ccc(N(c2ccccc2)c2cc(N(c3ccccc3)c3ccccc3)c3ccc4c(N(c5ccccc5)c5ccccc5)cc(N(c5ccccc5)c5ccccc5)c5ccc2c3c54)cc1 [Compound 20]
- Solubilities(/100 g toluene) [1]: >1.5 g
- Absorption peak of the toluene solution [2]: 465 nm
- Emission peak of the toluene solution [2]: 488 nm
- Molar extinction coefficient of the toluene solution [2]: 23000 L/mol
- Red shift of the spectrum in the film relative to the solution [3]: large red shift
- Absorption peak of the film [3]: 482 nm
- Emission peak of the film [3]: 561 nm
- Times t80 [4]: 188 min

Structure (SMILES): CC(C)(C)c1ccc(N(c2ccccc2)c2cc(N(c3ccccc3)c3ccc(C(C)(C)C)cc3)c3ccc4c(N(c5ccccc5)c5ccc(C(C)(C)C)cc5)cc(N(c5ccccc5)c5ccc(C(C)(C)C)cc5)c5ccc2c3c54)cc1 [Compound 21]
- Solubilities(/100 g toluene) [1]: >3 g
- Absorption peak of the toluene solution [2]: 469 nm
- Emission peak of the toluene solution [2]: 495 nm
- Molar extinction coefficient of the toluene solution [2]: 40000 L/mol
- Red shift of the spectrum in the film relative to the solution [3]: large red shift
- Absorption peak of the film [3]: 472 nm
- Emission peak of the film [3]: 546 nm

Structure (SMILES): CCCCCCCCc1ccc(-c2cc(C(C)C)ccc2N(c2cc(F)c(F)c(F)c2)c2cc(N(c3cc(F)c(F)c(F)c3)c3ccc(C(C)C)cc3-c3ccc(CCCCCCCC)cc3)c3ccc4c(N(c5cc(F)c(F)c(F)c5)c5ccc(C(C)C)cc5-c5ccc(CCCCCCCC)cc5)cc(N(c5cc(F)c(F)c(F)c5)c5ccc(C(C)C)cc5-c5ccc(CCCCCCCC)cc5)c5ccc2c3c54)cc1 [Compound 22]
- Solubilities(/100 g toluene) [1]: >15 g
- Molar extinction coefficient of the toluene solution [2]: 59000 L/mol
- Red shift of the spectrum in the film relative to the solution [3]: very small red shift
- Emission peak of the film [3]: 490 nm
- Times t80 [4]: 377 min

Structure (SMILES): CCCCCCCCc1ccc(-c2cc(N(c3ccc(C(C)(C)C)cc3)c3ccc(C(C)(C)C)cc3)ccc2N(c2cc(F)c(F)c(F)c2)c2cc(N(c3cc(F)c(F)c(F)c3)c3ccc(N(c4ccc(C(C)(C)C)cc4)c4ccc(C(C)(C)C)cc4)cc3-c3ccc(CCCCCCCC)cc3)c3ccc4c(N(c5cc(F)c(F)c(F)c5)c5ccc(N(c6ccc(C(C)(C)C)cc6)c6ccc(C(C)(C)C)cc6)cc5-c5ccc(CCCCCCCC)cc5)cc(N(c5cc(F)c(F)c(F)c5)c5ccc(N(c6ccc(C(C)(C)C)cc6)c6ccc(C(C)(C)C)cc6)cc5-c5ccc(CCCCCCCC)cc5)c5ccc2c3c54)cc1 [Compound 25]
- Solubilities(/100 g toluene) [1]: >10 g
- Molar extinction coefficient of the toluene solution [2]: 51000 L/mol
- Red shift of the spectrum in the film relative to the solution [3]: very small red shift

Structure (SMILES): CC(C)(C)c1ccc2c(c1)c1cc(C(C)(C)C)cc3c1n2-c1cccc2c1B3c1cc3c4ccccc4c4ccccc4c3c3c4c5c6ccccc6c6ccccc6c5ccc4n-2c13 [Compound E2, reference compound]
- Solubilities(/100 g toluene) [1]: >0.7 g
- Molar extinction coefficient of the toluene solution [2]: 48000 L/mol

Structure (SMILES): CC(C)(C)c1ccc2c(c1)B1c3c(c4c5c(c3-n3c6ccc(C(C)(C)C)cc6c6cc(C(C)(C)C)cc1c63)Oc1ccc(C(C)(C)C)cc1B5c1cc(C(C)(C)C)cc3c5cc(C(C)(C)C)ccc5n-4c13)O2 [Compound E4, reference compound]
- Solubilities(/100 g toluene) [1]: >0.7 g
- Absorption peak of the toluene solution [2]: 589 nm
- Emission peak of the toluene solution [2]: 613 nm
- Molar extinction coefficient of the toluene solution [2]: 27000 L/mol
